From patent US10544106B2, “Certain chemical entities, compositions, and methods” (NeuPharma, Inc., priority 2016, dated 2020)

Target: BTK (Homo sapiens (Human), UniProt Q06187)
Assay: Z'-LYTE kinase inhibition assay against BTK
Assay type: biochemical
Settings: for IC50: series of concentrations, GraphPad Prism 5
Method: Inhibitory activities of compounds against BTK, EGFR T790M, EGFR L858R, and EGFR L858R/T790M were measured using Z′-LYTE® Method from Life Technologies as briefly described in the following.
Test Compounds are screened in 1% DMSO (final) in the well. For 10 point titrations, 3-fold serial dilutions are conducted from the starting concentration. All ATP Solutions are diluted to a 4× working concentration in Kinase Buffer (50 mM HEPES pH 7.5, 0.01% BRIJ-35, 10 mM MgCl2, 1 mM EGTA). Peptide/Kinase Mixtures are diluted to a 2× working concentration in the appropriate Kinase Buffers as described below. • (i) Peptide/Kinase Mixtures for measurement of EGFR (ErbB1) L858R: • The 2×EGFR (ErbB1) L858R/Tyr 04 mixture is prepared in 50 mM HEPES pH 7.5, 0.01% BRIJ-35, 10 mM MgCl2, 4 mM MnCl2. 1 mM EGTA, 2 mM DTT. The final 10 μL Kinase Reaction consists of 0.2-1.68 ng EGFR (ErbB1) L858R and 2 μM Tyr 04 in 50 mM HEPES pH 7.5, 0.01% BRIJ-35, 10 mM MgCl2, 2 mM MnCl2, 1 mM EGTA, 1 mM DTT. After the 1 hour Kinase Reaction incubation, 5 μL of a 1:64 dilution of Development Reagent B is added. • (ii) Peptide/Kinase Mixtures for measurement of EGFR (ErbB1) T790M: The 2×EGFR (ErbB1) T790M/Tyr 04 mixture is prepared in 50 mM HEPES pH 6.5, 0.01% BRIJ-35, 10 mM MgCl2, 1 mM EGTA, 0.02% NaN3. The final 10 μL Kinase Reaction consists of 3.9-30.2 ng EGFR (ErbB1) T790M and 2 μM Tyr 04 in 50 mM HEPES pH 7.0, 0.01% BRIJ-35, 10 mM MgCl2, 1 mM EGTA, 0.01% NaN3. After the 1 hour Kinase Reaction incubation, 5 μL of a 1:64 dilution of Development Reagent B is added. • (iii) Peptide/Kinase Mixtures for measurement of EGFR (ErbB1) L858R/T790M: The 2×EGFR (ErbB1) T790M L858R/Tyr 04 mixture is prepared in 50 mM HEPES pH 6.5, 0.01% BRIJ-35, 10 mM MgCl2, 1 mM EGTA, 0.02% NaN3. The final 10 μL Kinase Reaction consists of 0.38-4.22 ng EGFR (ErbB1) T790M L858R and 2 μM Tyr 04 in 50 mM HEPES pH 7.0, 0.01% BRIJ-35, 10 mM MgCl2, 1 mM EGTA, 0.01% NaN3. After the 1 hour Kinase Reaction incubation, 5 μL of a 1:64 dilution of Development Reagent B is added. • (iv) Peptide/Kinase Mixtures for measurement of BTK: The 2×BTK/Tyr 01 mixture is prepared in 50 mM HEPES pH 7.5, 0.010/BRIJ-35, 10 mM MgCl2, 1 mM EGTA. The final 10 μL Kinase Reaction consists of 1.04-10.4 ng BTK and 2 μM Tyr 01 in 50 mM HEPES pH 7.5, 0.01% BRIJ-35, 10 mM MgCl2, 1 mM EGTA. After the 1 hour Kinase Reaction incubation, 5 μL of a 1:256 dilution of Development Reagent B is added.
Reaction starts by 30-second shaking of mixture consisting of 2.5 μL 4× test compound, 5 μL 2× kinase reaction mixture and 2.5 μL 4×ATP Solution on Bar-coded Corning, low volume NBS, black 384-well plate (Corning Cat. #3676). Then the mixture is incubated for 60-minute at room temperature for the kinase reaction, followed by addition of 5 μL of a 1:1024 dilution of development reagent A and 30-second plate shake. The mixture is then incubated for another 60-minute at room temperature for development reaction. Finally fluorescence is read by plate reader.
The Z′-LYTE assay was carried out with ATP concentration at Km. The scale utilized in Tables 2-6 is as follows: ++ more than 50% inhibition and + less than 50% inhibition.
To determine IC50 of a compound against a kinase, a series of concentrations of the compound were tested for the inhibition. IC50 was calculated by plotting the concentration of compound vs the percentage of inhibition in treated wells using GraphPad Prism 5. […] The scale utilized in Table 7 is as follows: ++ less than 100 nM and + greater than 100 nM.

[1] = compound at 100 nM, ATP concentration at Km

Sequence of BTK (Q06187 whole entry): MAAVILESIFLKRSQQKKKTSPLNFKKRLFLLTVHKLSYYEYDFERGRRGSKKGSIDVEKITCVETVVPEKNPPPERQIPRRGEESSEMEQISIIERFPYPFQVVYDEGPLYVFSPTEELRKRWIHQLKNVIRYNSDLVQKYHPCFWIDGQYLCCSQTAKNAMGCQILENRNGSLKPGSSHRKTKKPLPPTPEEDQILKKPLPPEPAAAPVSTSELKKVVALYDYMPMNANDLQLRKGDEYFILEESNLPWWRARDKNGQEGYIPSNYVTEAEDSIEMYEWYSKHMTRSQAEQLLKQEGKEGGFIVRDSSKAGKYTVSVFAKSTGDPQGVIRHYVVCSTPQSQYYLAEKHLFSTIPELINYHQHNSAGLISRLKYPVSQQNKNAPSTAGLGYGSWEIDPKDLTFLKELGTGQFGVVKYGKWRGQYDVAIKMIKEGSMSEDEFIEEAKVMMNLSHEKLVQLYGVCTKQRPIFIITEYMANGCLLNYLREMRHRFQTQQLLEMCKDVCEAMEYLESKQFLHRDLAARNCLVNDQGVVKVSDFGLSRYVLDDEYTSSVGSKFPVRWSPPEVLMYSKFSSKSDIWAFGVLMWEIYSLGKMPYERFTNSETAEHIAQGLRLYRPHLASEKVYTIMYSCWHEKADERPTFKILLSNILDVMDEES

Row | IC50 [nM] | inhibition at 0.1 µM [1] [%] | % Inhibition against BTK [1] | Molecule
1 | < 100 | – | – | 4-(5-Amino-1-(1-(but-2-ynoyl)pyrrolidin-3-yl)imidazo[1,5-c]pyrimidin-3-yl)-N-(pyridin-2-yl)-3-(trifluoromethyl)benzamide [C248]
2 | < 100 | > 50 | – | C=CC(=O)N1CCC(c2nc(-c3ccc(Oc4ccccn4)cc3)n3c(N)nccc23)C1 (racemic) [C224, (R/S)-1-(3-(5-amino-3-(4-(pyridin-2-yloxy)phenyl)imidazo[1,5-c]pyrimidin-1-yl)pyrrolidin-1-yl)prop-2-en-1-one]
3 | < 100 | – | ++ (more than 50% inhibition) | C=CC(=O)N1CCC(c2nc(-c3ccc(Oc4ccccn4)cc3)n3c(N)nccc23)C1 (racemic) [C225, (S/R)-1-(3-(5-amino-3-(4-(pyridin-2-yloxy)phenyl)imidazo[1,5-c]pyrimidin-1-yl)pyrrolidin-1-yl)prop-2-en-1-one]
4 | – | < 50 | – | C=CC(=O)Nc1cccc(-c2cc(-c3ccccc3)cc3cnc(-c4ccccc4)nc23)c1 [C001, N-(3-(2,6-diphenylquinazolin-8-yl)phenyl)acrylamide]
5 | – | < 50 | – | C=CC(=O)Nc1cccc(-c2cc(-c3ccccc3Cl)cc3cnc(-c4ccccc4)nc23)c1 [C002, N-(3-(6-(2-chlorophenyl)-2-phenylquinazolin-8yl)phenyl)acrylamide]
6 | < 100 | > 50 | – | C=CC(=O)Nc1cccc(-c2cc(-c3ccccc3)cc3cncnc23)c1 [C004, N-(3-(6-phenylquinazolin-8-yl)phenyl)acrylamide]
7 | < 100 | > 50 | – | C=CC(=O)Nc1cccc(-c2cc(-c3ccccc3)cc3cnc(N)nc23)c1 [C005, N-(3-(2-amino-6-phenylquinazolin-8-yl)phenyl)acrylamide]
8 | < 100 | > 50 | – | C=CC(=O)Nc1cccc(-c2cc(-c3ccncc3)cc3cncnc23)c1 [C006, N-(3-(6-(pyridin-4-yl)quinazolin-8-yl)phenyl)acrylamide]
9 | < 100 | > 50 | – | C=CC(=O)Nc1cccc(-c2cc(-c3cccnc3)cc3cncnc23)c1 [C007, N-(3-(6-(pyridin-3-yl)quinazolin-8-yl)phenyl)acrylamide]
10 | – | < 50 | – | C=CC(=O)N1CCC=C(c2cc(-c3ccc(C(=O)Nc4ccccn4)cc3)cc3cncnc23)C1 [C009, 4-(8-(1-acryloyl-1,2,5,6-tetrahydropyridin-3-yl)quinazolin-6-yl)-N-(pyridin-2-yl)benzamide]
11 | – | > 50 | – | C=CC(=O)Nc1cccc(-c2cc(-c3ccc(C)nc3)cc3cncnc23)c1 [C010, N-(3-(6-(6-methylpyridin-3-yl)quinazolin-8-yl)phenyl)acrylamide]
12 | – | < 50 | – | C=CC(=O)Nc1cccc(-c2cc(-c3cccc(Nc4cccc(C(F)(F)F)c4)c3)cc3cncnc23)c1 [C011, N-(3-(6-(3-((3-(trifluoromethyl)phenyl)amino)phenyl)quinazolin-8-yl)phenyl)acrylamide]
13 | – | < 50 | – | C=CC(=O)N1CCCC(n2c(-c3ccccc3)nc3cncnc32)C1 (stereo not shown) [C012, 1-(3-(8-phenyl-9H-purin-9-yl)piperidin-1-yl)prop-2-en-1-one]
14 | – | < 50 | – | C=CC(=O)Nc1cccc(-n2c(-c3ccccc3)nc3cncnc32)c1 [C014, N-(3-(8-phenyl-9H-purin-9-yl)phenyl)acrylamide]
15 | – | < 50 | – | C=CC(=O)N1CCC(n2c(-c3ccccc3)nc3cnc(N)nc32)C1 (stereo not shown) [C015, 1-(3-(2-amino-8-phenyl-9H-purin-9-yl)pyrrolidin-1-yl)prop-2-en-1-one]
16 | – | < 50 | – | C=CC(=O)Nc1cccc(-c2cc(-c3ccccc3)cc3c(N)ncnc23)c1 [C016, N-(3-(4-amino-6-phenylquinazolin-8-yl)phenyl)acrylamide]
17 | – | > 50 | – | C=CC(=O)Nc1cccc(-c2cc(-c3cccc(Nc4ccccc4)c3)cc3cncnc23)c1 [C017, N-(3-(6-(3-(phenylamino)phenyl)quinazolin-8-yl)phenyl)acrylamide]
18 | – | < 50 | – | C=CC(=O)Nc1cccc(-c2cc(-c3ccnc(C(F)(F)F)c3)cc3cncnc23)c1 [C018, N-(3-(6-(2-(trifluoromethyl)pyridin-4-yl)quinazolin-8-yl)phenyl)acrylamide]
19 | – | < 50 | – | C=CC(=O)Nc1cccc(-c2cc(-c3ccc(Nc4cccc(C(F)(F)F)c4)cc3)cc3cncnc23)c1 [C019, N-(3-(6-(4-((3-(trifluoromethyl)phenyl)amino)phenyl)quinazolin-8-yl)phenyl)acrylamide]
20 | – | < 50 | – | C=CC(=O)N1CCCC(c2cc(-c3ccccc3)cc3cncnc23)C1 (stereo not shown) [C020, 1-(3-(6-phenylquinazolin-8-yl)piperidin-1-yl)prop-2-en-1-one]
21 | – | < 50 | – | C=CC(=O)N1CCC(n2c(-c3ccccc3)nc3cncnc32)C1 (stereo not shown) [C021, 1-(3-(8-phenyl-9H-purin-9-yl)pyrrolidin-1-yl)prop-2-en-1-one]
22 | – | < 50 | – | C=CC(=O)Nc1cccc(-c2cc(-c3cccc(Nc4ccccc4)c3)cc3c(N)ncnc23)c1 [C022, N-(3-(4-amino-6-(3-(phenylamino)phenyl)quinazolin-8-yl)phenyl)acrylamide]
23 | < 100 | > 50 | – | C=CC(=O)Nc1cccc(-c2cc(-c3ccc(Oc4ccccc4)cc3)cc3cncnc23)c1 [C023, N-(3-(6-(4-phenoxyphenyl)quinazolin-8-yl)phenyl)acrylamide]
24 | – | < 50 | – | C=CC(=O)Nc1cccc(-n2c(-c3ccccc3)nc3cnc(N)nc32)c1 [C024, N-(3-(2-amino-8-phenyl-9H-purin-9-yl)phenyl)acrylamide]
25 | – | < 50 | – | C=CC(=O)Nc1cccc(-c2cc(-c3ccc(Nc4ccccc4)cc3)cc3cncnc23)c1 [C025, N-(3-(6-(4-(phenylamino)phenyl)quinazolin-8-yl)phenyl)acrylamide]
26 | – | < 50 | – | C=CC(=O)N1CCC(n2c(-c3ccccc3Cl)nc3cnc(N)nc32)C1 (stereo not shown) [C026, 1-(3-(2-amino-8-(2-chlorophenyl)-9H-purin-9-yl)pyrrolidin-1-yl)prop-2-en-1-one]
27 | – | < 50 | – | C=CC(=O)N1CCCC(n2c(-c3ccccc3Cl)nc3cnc(N)nc32)C1 (stereo not shown) [C027, 1-(3-(2-amino-8-(2-chlorophenyl)-9H-purin-9-yl)piperidin-1-yl)prop-2-en-1-one]
28 | < 100 | > 50 | – | C=CC(=O)N1CCCC(c2cc(-c3ccc(Oc4ccccc4)cc3)cc3cnc(N)nc23)C1 (stereo not shown) [C028, 1-(3-(2-amino-6-(4-phenoxyphenyl)quinazolin-8-yl)piperidin-1-yl)prop-2-en-1-one]
29 | – | < 50 | – | C=CC(=O)N1CCCC(c2cc(-c3cccc(Nc4cccc(C(F)(F)F)c4)c3)cc3cncnc23)C1 (stereo not shown) [C029, 1-(3-(6-(3-((3-(trifluoromethyl)phenyl)amino)phenyl)quinazolin-8-yl)piperidin-1-yl)prop-2-en-1-one]
